Reference: ChEMBL document CHEMBL4017467, “Generation of tricyclic imidazo[1,2-a]pyrazines as novel PI3K inhibitors by application of a conformational restriction strategy” (Bioorg Med Chem Lett, 2017)

Tests used:
in vitro [1] = conditions: human, liver microsomes
in vitro [2] = conditions: rat, liver microsomes

remaining at 0.25 h, 1 µM (in vitro [1]): 93%
remaining at 0.25 h, 1 µM (in vitro [2]): 99%
SMILES: CS(=O)(=O)N1CCN(Cc2cn3cc(-c4cnc(N)nc4)nc(N4CCOCC4)c3n2)CC1
